Measured values as given in patent US20250312497A1, “METHOD OF TREATING PROSTATE CANCER” (Novartis AG, priority 2022, published 2025).

Key:
[1] = tested on: PSMA-positive metastatic castration-resistant prostate cancer (mCRPC); test: PSMAfore phase III: best overall radiological response (soft tissue and bone) by BICR; format: in vivo, human; settings: results update
Procedure: Best overall radiological response accounting for soft tissue and bone disease based on BICR (Recist analysis set—participants with measurable disease at baseline)
Responses are based on soft tissue assessment and bone lesion progression. Best overall responses of CR and PR were confirmed by repeat assessments that were performed not less than 4 weeks after the criteria for response were first met.
CR may include participants with residual but non-progressive bone disease.

[2] = excretory mechanisms, kidneys (Kratochwil et al 2016); cited from earlier work
[3] = Recist analysis set, measurable disease at baseline, BICR

O=C([O-])CN1CCN(CC(=O)[O-])CCN(CC(=O)NCC2CCC(C(=O)N[C@@H](Cc3ccc4ccccc4c3)C(=O)NCCCC[C@H](NC(=O)N[C@@H](CCC(=O)O)C(=O)O)C(=O)O)CC2)CCN(CC(=O)[O-])CC1.[177Lu+3] (stereo partly drawn) [[177Lu]Lu-PSMA-617, lutetium (177Lu) vipivotide tetraxetan]
Best overall response: Complete response (CR) [1, 3]: 15 (21.1) n (%)
Best overall response: Partial response (PR) [1, 3]: 20 (28.2) n (%)
Best overall response: Progressive disease (PD) [1, 3]: 14 (19.7) n (%)
Best overall response: Unknown (UNK) [1, 3]: 2 (2.8) n (%)
Disease Control Rate (DCR: CR + PR + SD) [1, 3]: 55 (77.5) n (%)
Overall Response Rate (ORR: CR + PR) [1, 3]: 35 (49.3) n (%)
rDCR compared to ARDT [1]: a higher rDCR compared to ARDT
rORR compared to ARDT [1]: at least three times higher rORR compared to ARDT
injected dose cleared within 48 hours [2]: approximately 50%
